Like-named read-outs stand apart in the source and are kept apart here.
Test: Single oral dose pharmacokinetics of metapristone in beagle dogs, non-compartmental analysis
Assay type: in vivo
Conditions: for AUC(0-inf) / AUC(0-t) / CL/F / Cmax / Tmax / Vd/F / half-life / MRT last: beagle, dog, plasma, po; for MRT last: read-out: MRT (0-t)
Protocol: For pharmacokinetic study, rats were fasted overnight with free access to water using procedures reported previously. Ninety-six SD rats (forty-eight males and forty-eight females) were randomly divided into […] single-dose groups. Rats (six animals/sex/dose) were given a single oral dose of 22.5, 45 and 90 mg/kg metapristone (in soybean oil solution) by intragastric administration or 10 mg/kg metapristone by intravenous bolus injection. Rat blood samples (0.25 mL) were collected from the ocular vein into heparinized tubes prior to and at 0 (before administration), 0.5, 1.0, 1.5, 2.0, 4.0, 6.0, 8.0, 12, 24, 36 and 48 h post-dosing in female rats or 0.5, 1.0, 1.5, 2.0, 4.0, 6.0, 8.0, 12, 24, 30 and 36 h post-dosing in male rats. In the repeated dose study twenty-four rats (six animals/sex/dose) received the same dosing regimen at 45 mg/kg metapristone for 10 days. Blood samples were collected after oral administration on day 1 and 10 at T max. The samples were stored at −80 °C until analysis. Beagle dogs (three animals/sex/dose) were dosed by gavage at 5.62, 11.25, 22.5 mg/kg metapristone (in soybean oil solution). Dog blood (0.25 mL) was withdrawn from the jugular vein at 0.5, 1.0, 2.0, 4.0, 6.0, 8.0, 10, 12, 24 and 48 h after a single oral administration.
The plasma samples obtained by centrifugation at 4000 g for 10 min and stored at −80 °Cuntil analysis. To each 100 µL of plasma sample, 50 µL of internal standard solution were added. Metapristone was then separated and analyzed by the LC/MS/MS method according to the previously described procedures. Peak area ratios of metapristone to the internal standard were plotted against theoretical concentrations. The maximum plasma concentration (C max), the time to reach C max (T max) were determined directly from experimental data. The other pharmacokinetic parameters such as elimination half-life (t 1/2), and mean residence time (MRT) were calculated by using the non-compartmental pharmacokinetics data analysis software of DAS version 3.2 (Bio Guider Co., Shanghai, China). The area under the plasma concentration-time curve from zero to infinity was calculated by using the linear trapezoidal rule with extrapolation to infinity with terminal constant eliminate rate (k e). Bioavailability was calculated as (AUCp.o./AUCi.v.) x (dosei.v./ dosep.o.) 100% as we previously described.

[1] = 5.62, 11.25 and 22.5 mg/kg p.o.

With `CC#C[C@]1(O)CC[C@H]2[C@@H]3CCC4=CC(=O)CCC4=C3[C@@H](c3ccc(NC)cc3)C[C@@]21C` [metapristone, N-monodemethyl mifepristone] the “C max and AUC in female dogs relative to male dogs (greater)” value [1] was 1–2.4 fold, the “CL/F in female dogs relative to male dogs (lower)” value [1] was 1.5–3.6 fold and the “V d /F in female dogs relative to male dogs (lower)” value [1] was 1.3–2.38 fold. For the same compound, the AUC(0-inf) (female dogs, p.o. 5.6 mg/kg) was 580 ± 120 ng·h/mL, the AUC(0-t) (female dogs, p.o. 5.6 mg/kg) was 560 ± 110 ng·h/mL and the CL/F (female dogs, p.o. 5.6 mg/kg) was 165 mL/min/kg. It also gave a Cmax (female dogs, p.o. 5.6 mg/kg) of 70 ± 10 ng/mL, a Tmax (female dogs, p.o. 5.6 mg/kg) of 1.67 ± 0.57 h and a Vd/F (female dogs, p.o. 5.6 mg/kg) of 126 ± 7.1 L/kg. For the same compound, the half-life (female dogs, p.o. 5.6 mg/kg) was 8.05 ± 1.12 h, the MRT last (female dogs, p.o. 5.6 mg/kg) was 7.23 ± 1.69 h and the AUC(0-inf) (female dogs, p.o. 11.25 mg/kg) was 1330 ± 110 ng·h/mL. For the same compound, the AUC(0-t) (female dogs, p.o. 11.25 mg/kg) was 1280 ± 100 ng·h/mL, the CL/F (female dogs, p.o. 11.25 mg/kg) was 141 mL/min/kg and the Cmax (female dogs, p.o. 11.25 mg/kg) was 190 ± 30 ng/mL. The Tmax (female dogs, p.o. 11.25 mg/kg) was 1.67 ± 0.57 h, the Vd/F (female dogs, p.o. 11.25 mg/kg) was 105 ± 9.17 L/kg and the half-life (female dogs, p.o. 11.25 mg/kg) was 8.57 ± 1.12 h. For the same compound, the MRT last (female dogs, p.o. 11.25 mg/kg) was 8.62 ± 0.56 h, the AUC(0-inf) (female dogs, p.o. 22.5 mg/kg) was 2560 ± 210 ng·h/mL and the AUC(0-t) (female dogs, p.o. 22.5 mg/kg) was 2400 ± 150 ng·h/mL. It also gave a CL/F (female dogs, p.o. 22.5 mg/kg) of 147 mL/min/kg, a Cmax (female dogs, p.o. 22.5 mg/kg) of 380 ± 10 ng/mL and a Tmax (female dogs, p.o. 22.5 mg/kg) of 1.66 ± 0.57 h. The Vd/F (female dogs, p.o. 22.5 mg/kg) was 89.2 ± 14.1 L/kg, the half-life (female dogs, p.o. 22.5 mg/kg) was 7.19 ± 2.83 h and the MRT last (female dogs, p.o. 22.5 mg/kg) was 7 ± 0.61 h. It also gave an AUC(0-inf) (male dogs, p.o. 5.6 mg/kg) of 230 ± 50 ng·h/mL, an AUC(0-t) (male dogs, p.o. 5.6 mg/kg) of 210 ± 30 ng·h/mL and a CL/F (male dogs, p.o. 5.6 mg/kg) of 266 mL/min/kg. For the same compound, the Cmax (male dogs, p.o. 5.6 mg/kg) was 50 ng/mL, the Tmax (male dogs, p.o. 5.6 mg/kg) was 2 h and the Vd/F (male dogs, p.o. 5.6 mg/kg) was 187 ± 8.21 L/kg. For the same compound, the half-life (male dogs, p.o. 5.6 mg/kg) was 8.18 ± 2.9 h, the MRT last (male dogs, p.o. 5.6 mg/kg) was 7.16 ± 1.12 h and the AUC(0-inf) (male dogs, p.o. 11.25 mg/kg) was 770 ± 110 ng·h/mL. It also gave an AUC(0-t) (male dogs, p.o. 11.25 mg/kg) of 750 ± 100 ng·h/mL, a CL/F (male dogs, p.o. 11.25 mg/kg) of 241 mL/min/kg and a Cmax (male dogs, p.o. 11.25 mg/kg) of 150 ± 30 ng/mL. It also gave a Tmax (male dogs, p.o. 11.25 mg/kg) of 2 h, a Vd/F (male dogs, p.o. 11.25 mg/kg) of 136 ± 13.1 L/kg and a half-life (male dogs, p.o. 11.25 mg/kg) of 5.54 ± 2.3 h. For the same compound, the MRT last (male dogs, p.o. 11.25 mg/kg) was 5.68 ± 1.1 h, the AUC(0-inf) (male dogs, p.o. 22.5 mg/kg) was 1600 ± 340 ng·h/mL and the AUC(0-t) (male dogs, p.o. 22.5 mg/kg) was 1560 ± 310 ng·h/mL. It also gave a CL/F (male dogs, p.o. 22.5 mg/kg) of 210 mL/min/kg, a Cmax (male dogs, p.o. 22.5 mg/kg) of 300 ± 20 ng/mL and a Tmax (male dogs, p.o. 22.5 mg/kg) of 2 h. The Vd/F (male dogs, p.o. 22.5 mg/kg) was 123 ± 15 L/kg, the half-life (male dogs, p.o. 22.5 mg/kg) was 6.79 ± 2.81 h and the MRT last (male dogs, p.o. 22.5 mg/kg) was 6.18 ± 0.34 h. For the same compound, the “increase of Cmax for female dogs versus male dogs” value (p.o. 5.6 mg/kg) was 40%.
